Key:
[1] = tested on: peripheral blood mononuclear cells (PBMC); test: Annexin-V death assay of normal PBMC; type: cell-based; conditions: Homo sapiens, 24 hours, read-out: EC50, PBMC from normal donors
Experimental: (§1) Cells were stained with fluorescent conjugates of Annexin-V (BioVision) and propidium iodide (PI) and analyzed on a FACSCalibur machine (Becton-Dickinson).
15 ml of blood in heparin treated tubes was obtained from each anonymous CLL patient and processed without freezing. Equal volume of media (RPMI medium, 10% […], supplemented with […] and 10 mg/ml transferrin) was mixed with each sample and CLL cells isolated by centrifugation through Ficoll-PAQUE Plus (Amersham). Cells were washed twice in media and cultured at a density of 2.0×10^6 cells/ml for up to 48 hours. Samples for FIG. 11A were obtained from 24 consecutive patients identified with WBC >50,000/μl. All guidelines and regulations were followed in accordance with IRB protocols #99-224 (Dana-Farber Cancer Institute). Normal PBMC's were obtained from tubing discarded following platelet donation by anonymous normal donors and processed as above, except cultured without insulin and transferrin.
CLL cells have shown sensitivity to ABT-737, so they were selected as a possible initial cancer model of BCL-2 dependence (Oltersdorf et al., 2005). Freshly isolated primary CLL cells were incubated with ABT-737 or negative control enantiomer. After 48 hours, death was assessed using Annexin-V staining. […] Directly targeting the apoptotic machinery might be expected to induce apoptosis rapidly.

[2] = tested on: 2B4 cells; test: 2B4 cell viability with dexamethasone by Annexin V; type: cell-based, murine; conditions: 24 hours
Description: as §1

[3] = tested on: CLL mitochondria; test: Cytochrome c release from CLL mitochondria; type: biochemical, human; conditions: peptides or compounds 100 μM
Experimental: Alternatively, mitochondria were purified from freshly isolated CLL cells and cell lines by mechanical disruption followed by differential centrifugation, as previously described (Letai et al., 2002). Mitochondrial suspensions were made at 0.5 mg protein/ml, except for the case of ABT-737 and negative control enantiomer treatments, where 0.1 mg/ml was used. Release of cytochrome c was determined by a comparison of cytochrome c in the pellet and supernatant quantitated by ELISA (R&D systems).
CLL mitochondria were incubated with BH3 peptides as well as ABT-737 and negative control enantiomer (FIG. 14). […] This pattern is diagnostic of mitochondrial BCL-2 dependence. […] Since the BH3 peptides in the sensitizer panel lack the ability to directly activate BAX and BAK, these experiments also implicated the presence of an activator molecule constitutively sequestered by BCL-2 in CLL.

CN(C)CC[C@H](CSc1ccccc1)Nc1ccc(S(=O)(=O)NC(=O)c2ccc(N3CCN(Cc4ccccc4-c4ccc(Cl)cc4)CC3)cc2)cc1[N+](=O)[O-] [ABT-737]
EC50 [1]: > 1000 nM | effect on cell survival ([2]; BCL-2-protected dexamethasone-treated 2B4 cells): very sensitive to ABT-737 | effect on cell survival ([2]; MCL-1-protected dexamethasone-treated 2B4 cells): has no effect | cytochrome c release [3]: also induced cytochrome c release

From patent publication US11215608B2, “Methods of determining cellular chemosensitivity” (Dana-Farber Cancer Institute, Inc., priority 2006, dated 2022)
